Test results published in patent US20250290915A1, “METHOD FOR PREDICTING RESPONSIVENESS TO THERAPY” (CANCERTAIN LIMITED, priority 2022, published 2025).

Key:
Assay type in all cases: cell-based, human
[1] = tested on: Circulating Tumour Cells (CTCs) from a patient with head and neck cancer (squamous cell carcinoma); experiment: Drug response score assay on CTCs from blood, Example 6; conditions: for Drug response score, conc. 1: conc. 1: Ifos 0.125 μg/ml, Gemcit 2 μg/ml, Doxo 10 ng/ml, Etop 1 μg/ml, Metho 0.5 μg/ml, Capecit 200 μg/ml, Vinor 20 μg/ml; for Drug response score, conc. 1 / Drug response score, conc. 2 / Drug response score, conc. 3 / Drug response score, conc. 4: CTCs, t96h; for Drug response score, conc. 2: conc. 2: Ifos 0.25 μg/ml, Gemcit 10 μg/ml, Doxo 30 ng/ml, Etop 4 μg/ml, Metho 1 μg/ml, Capecit 300 μg/ml, Vinor 40 μg/ml; for Drug response score, conc. 3: conc. 3: Ifos 5 μg/ml, Gemcit 20 μg/ml, Doxo 90 ng/ml, Etop 20 μg/ml, Metho 2 μg/ml, Capecit 400 μg/ml, Vinor 80 μg/ml; for Drug response score, conc. 4: conc. 4: Ifos 10 μg/ml, Gemcit 40 μg/ml, Doxo 270 ng/ml, Etop 100 μg/ml, Metho 4 μg/ml, Capecit 600 μg/ml, Vinor 200 μg/ml; for effectiveness on Circulating Tumour Cells under laboratory conditions / Drug sensitivity as calculated by the assay (interpretation of Drug Response Scores): head and neck cancer CTCs; for Drug sensitivity as calculated by the assay (interpretation of Drug Response Scores): Table 20
Procedure: (§1) CD45^+ cells and circulating tumour cells (CTCs) were isolated from a blood sample provided by each subject.
(§2) CD45 separation was performed by adding human CD45 microbeads (50 μl/ml blood), incubating for 15 minutes at 4° C. and then processing using an AutoMACS machine. This separates the blood sample into CD45^+ and CD45^−cells in 2 separate falcons. The falcon tubes are then centrifuged at 1200 rpm for 5 minutes.
(§3) The supernatant was removed from the CD45^−falcon tube, and the CD45^−cells contacted with 100 μl of FcR block and 100 μl of CD326 (EpCAM) MicroBeads, followed by incubation at […] 4° C. for 30 minutes. The CD45^−cells were then processed using an AutoMACS machine to separate the EpCAM positive and negative cells into 2 separate falcon tubes. The EpCAM-cells were discarded. The supernatant was removed from the EpCAM^+ cells, and the cells resuspended in DMEM with 2 μl Cell Tox, 2 μl MT and 2 μl MT. 20 μl of the resuspended pellet was then added to all sample wells excluding a blank. After all wells are added to, a cell count was conducted on the […] to determine the number of circulating tumour cells (CTCs).
(§4) The different cell types were each divided equally into populations, depending on the number of drugs/concentrations to be tested and plated on a cell-culture plate pre-coated with a scaffold of polycaprolactone (PCL) electrospun fibres and incubated at 37° C., 5% CO2, for 5 to (typically 10) minutes to facilitate cell attachment. After attachment, an initial imaging step was carried out using the RealTime-Glo™ MT assay from Promega (Catalogue No. G9711)) and the CellTox™ Green Cytotoxicity Assay (Promega, Catalogue No. G8741), carried out according to manufacturer's instructions. Following this initial imagining, the immunotherapeutic and/or chemotherapeutic agents were added to the cell populations as indicated below. After 10 minutes, the imagining step was repeated. The cell populations were then incubated at 37° C., 5% CO2 for 48 hours. The imaging step was then repeated. The cell populations were then re-dosed with the same immunotherapeutic and/or chemotherapeutic agents as indicated below, and incubated at 37° C., 5% CO2 for a further 48 hours. After this second 48 hour incubation, the imagining step was repeated for a final time.
(§5) At the end of this culture period, dose response scores were calculated using a normalized drug response metric as described in Gupta et al. (Communications Biology volume 3, Article number: 42 (2020), https://doi.org/10.1038/s42003-020-0765-z). The start readout for a given immunotherapeutic or chemotherapeutic agent at a given concentration was the to readout for said immunotherapeutic or chemotherapeutic agent at a specified concentration. The end readout for a given immunotherapeutic or chemotherapeutic agent at a given concentration was the final timepoint reading (t96h) for said immunotherapeutic or chemotherapeutic agent at a specified concentration.
(§6) The positive control start readout for a given drug/concentration was the to readout for the corresponding drug at a specified concentration. The positive control end readout for the corresponding drug at a specified concentration was the final timepoint reading (t96h) for the corresponding blank well.
(§7) The negative control start and end readouts for a given immunotherapeutic or chemotherapeutic agent at a given concentration were the to and final timepoint reading (t96h) respectively for blank cell or blank immuno cell well respectively.
The sensitivity or resistance of a subject's cancer to a given immunotherapeutic or chemotherapeutic agent was determined based on the calculated drug response score as shown in Table 2.
Blood samples from a patient with head and neck cancer (squamous cell carcinoma) were received on 11 Mar. 2022 and tested using a 7 drug panel.

[2] = tested on: Circulating Tumour Cells (CTCs) from a patient with rectal cancer (anorectal carcinoma with secondary lung cancer); experiment: Drug response score assay on CTCs (with CD45+ cells for immunotherapy) from blood, Example 3; conditions: for Drug response score, conc. 1: conc. 1: Pembro 20 μg/ml, Nivo 20 μg/ml (CTCs + CD45+ cells), Lenva 50 ng/ml, Regor 60 μg/ml (CTCs); for Drug response score, conc. 1 / Drug response score, conc. 2 / Drug response score, conc. 3 / Drug response score, conc. 4: t96h; for Drug response score, conc. 2: conc. 2: Pembro 40 μg/ml, Nivo 40 μg/ml (CTCs + CD45+ cells), Lenva 100 ng/ml, Regor 80 μg/ml (CTCs); for Drug response score, conc. 3: conc. 3: Pembro 100 μg/ml, Nivo 80 μg/ml (CTCs + CD45+ cells), Lenva 200 ng/ml, Regor 120 μg/ml (CTCs); for Drug response score, conc. 4: conc. 4: Pembro 160 μg/ml, Nivo 160 μg/ml (CTCs + CD45+ cells), Lenva 400 ng/ml, Regor 160 μg/ml (CTCs); for effectiveness on Circulating Tumour Cells under laboratory conditions / Drug sensitivity as calculated by the assay (interpretation of Drug Response Scores): rectal cancer CTCs; for Drug sensitivity as calculated by the assay (interpretation of Drug Response Scores): Table 11
Procedure: as §1, §2
(§8) The supernatant was removed from the CD45^+falcon tube, and the cells resuspended in DMEM with 2 μl Cell Tox, 2 μl MT and 2 μl MT. 20 μl of the resuspended CD45^+ cells was then plated in each well which will contain an immunotherapy treatment.
as §3, §4, §5, §6, §7
(§9) The sensitivity or resistance of a subject's cancer to a given immunotherapeutic or chemotherapeutic agent was determined based on the calculated drug response score as shown in Table 2. […]

[3] = tested on: Circulating tumour cells (CTCs) from a patient with GI cancer (Cholangio Carcinoma, stage 4); experiment: Drug response score assay on blood sample, Example 9; parameters: key to Drug response score from blood sample, conc. 1 / Drug response score from blood sample, conc. 2 / Drug response score from blood sample, conc. 3 / Drug response score from blood sample, conc. 4: normalized drug response metric per Gupta et al. 2020; conditions: for effectiveness on Circulating Tumour Cells under laboratory conditions: GI cancer (Cholangio Carcinoma) blood sample; for Drug response score from blood sample, conc. 1: conc. 1 of each drug as in Table 27; for Drug response score from blood sample, conc. 1 / Drug response score from blood sample, conc. 2 / Drug response score from blood sample, conc. 3 / Drug response score from blood sample, conc. 4: t96h; for Drug response score from blood sample, conc. 2: conc. 2 of each drug as in Table 27; for Drug response score from blood sample, conc. 3: conc. 3 of each drug as in Table 27; for Drug response score from blood sample, conc. 4: conc. 4 of each drug as in Table 27; for Drug sensitivity as calculated by the assay, Blood: interpretation based on Drug Response Scores; for Drug response score from blood sample, conc. 1 / Drug response score from blood sample, conc. 2 / Drug response score from blood sample, conc. 3 / Drug response score from blood sample, conc. 4 / Drug sensitivity as calculated by the assay, Blood: blood sample
Procedure: as §1, §2, §8, §3, §4, §5, §6, §7, §9

Molecule	Drug response score, conc. 1 [1]	Drug response score, conc. 2 [1]	Drug response score, conc. 3 [1]	Drug response score, conc. 4 [1]	effectiveness on Circulating Tumour Cells under laboratory conditions [1]	Drug sensitivity as calculated by the assay (interpretation of Drug Response Scores) [1]	Drug response score, conc. 1 [2]	Drug response score, conc. 2 [2]	Drug response score, conc. 3 [2]	Drug response score, conc. 4 [2]	effectiveness on Circulating Tumour Cells under laboratory conditions [2]	Drug sensitivity as calculated by the assay (interpretation of Drug Response Scores) [2]	effectiveness on Circulating Tumour Cells under laboratory conditions [3]	Drug response score from blood sample, conc. 1 [3]	Drug response score from blood sample, conc. 2 [3]	Drug response score from blood sample, conc. 3 [3]	Drug response score from blood sample, conc. 4 [3]	Drug sensitivity as calculated by the assay, Blood [3]
COc1cccc2c1C(=O)c1c(O)c3c(c(O)c1C2=O)C[C@@](O)(C(=O)CO)C[C@@H]3O[C@H]1C[C@H](N)[C@H](O)[C@H](C)O1 [Doxorubicin]	0.7699	0.9452	0.6229	0.7995	Sensitive S+	Sensitive (S+)												
COc1cc([C@@H]2c3cc4c(cc3[C@@H](O[C@@H]3O[C@@H]5CO[C@@H](C)O[C@H]5[C@H](O)[C@H]3O)[C@H]3COC(=O)[C@H]23)OCO4)cc(OC)c1O [Etoposide]	0.9372	0.6295	0.9862	0.5135	Sensitive S+	Sensitive (S+)												
O=P1(NCCCl)OCCCN1CCCl (stereo not drawn) [Ifosfamide]	0.7257	0.2439	0.9228	0.3682	Sensitive S+	Sensitive (S+)												
COc1cc2nccc(Oc3ccc(NC(=O)NC4CC4)c(Cl)c3)c2cc1C(N)=O [Lenvatinib]							2.0109	1.6409	0.8991	2.0235	not effective	Resistant	S+	0.2851	0.3155	0.4097	0.6214	S+
CC(=O)O[C@H]1C(=O)[C@@]2(C)[C@H]([C@H](OC(=O)c3ccccc3)[C@]3(O)C[C@H](OC(=O)[C@H](O)[C@@H](NC(=O)c4ccccc4)c4ccccc4)C(C)=C1C3(C)C)[C@]1(OC(C)=O)CO[C@@H]1C[C@@H]2O [Paclitaxel]													S+	0.2346	0.5329	0.5298	0.756	
Nivolumab							0.4990	0.6429	0.6261	1.0807	Sensitive S+	Sensitive (S+)		1	0.2783	1.061	1.046	
Pembrolizumab							0.6167	0.4053	0.9748	0.7712	Sensitive S+	Sensitive (S+)	S+	0.00068	0.1572	1.041	0.6989	S+
